Literature values, collected in patent US10744098B2, “Spray-dried solid-in-oil-in-water dispersions for inhalation of active pharmaceutical ingredients” (Novartis AG, priority 2014, dated 2020).

Target: β2-adrenoceptor (Homo sapiens, UniProt P07550)
Sequence (P07550 whole entry, species assumed): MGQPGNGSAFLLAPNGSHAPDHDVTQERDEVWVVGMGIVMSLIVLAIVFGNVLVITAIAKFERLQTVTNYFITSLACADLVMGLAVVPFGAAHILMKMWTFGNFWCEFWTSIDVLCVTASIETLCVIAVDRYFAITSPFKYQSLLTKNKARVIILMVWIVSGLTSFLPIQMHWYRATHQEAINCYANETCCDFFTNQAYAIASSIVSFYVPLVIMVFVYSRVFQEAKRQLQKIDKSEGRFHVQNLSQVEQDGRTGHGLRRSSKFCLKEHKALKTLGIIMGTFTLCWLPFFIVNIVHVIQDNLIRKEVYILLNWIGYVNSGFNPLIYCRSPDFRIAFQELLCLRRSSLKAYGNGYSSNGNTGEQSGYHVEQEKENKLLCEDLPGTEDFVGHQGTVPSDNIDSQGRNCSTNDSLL

CCc1cc2c(cc1CC)CC(NC[C@H](O)c1ccc(O)c3[nH]c(=O)ccc13)C2 [indacaterol, (R)-5-[2-(5,6-diethyl-indan-2-ylamino)-1-hydroxyethyl]-8-hydroxy-1H-quinolin-2-one]
duration of action: over 24 hours
onset of action: about 10 minutes
